Converted amounts (≈) assume the structure as drawn.
System: Staphylococcus aureus
Assay: Antimicrobial activity against Staphylococcus aureus MTCC 96
Assay type: functional
Settings: not given

Structure (SMILES)	MIC [µg/mL]
c1ccc(C2=NN(c3ccccc3)C(c3noc(-c4ccccc4)n3)C2)cc1 (configuration not stated)	50 (≈ 136 µM)
COc1ccc(C2=NN(c3ccccc3)C(c3noc(-c4ccccc4)n3)C2)cc1 (configuration not stated)	55 (≈ 139 µM)

System: Radical scavenging activity
Assay: Antioxidant activity assessed as DPPH free radical scavenging activity at 50 ug/ml after 20 mins
Assay type: functional
Settings: not given

Structure (SMILES)	Activity [%]
c1ccc(C2=NN(c3ccccc3)C(c3noc(-c4ccccc4)n3)C2)cc1 (configuration not stated)	28
COc1ccc(C2=NN(c3ccccc3)C(c3noc(-c4ccccc4)n3)C2)cc1 (configuration not stated)	36

System: Bacillus cereus
Assay: Antimicrobial activity against Bacillus cereus MTCC 8372 at 50 ug/ml after 24 hrs by agar disc diffusion method
Assay type: functional
Settings: MTCC 8372, 24 h, read-out: DIZ

Structure (SMILES)	zone of inhibition at 50 µg/mL [mm]
c1ccc(C2=NN(c3ccccc3)C(c3noc(-c4ccccc4)n3)C2)cc1 (configuration not stated)	4
COc1ccc(C2=NN(c3ccccc3)C(c3noc(-c4ccccc4)n3)C2)cc1 (configuration not stated)	3

System: not listed separately
Assay: Antioxidant activity against ferric chloride-induced lipid peroxidation using egg lecithin at 100 ug/ml after 1 hr
Assay type: functional
Settings: not given

Structure (SMILES)	inhibition [%]
c1ccc(C2=NN(c3ccccc3)C(c3noc(-c4ccccc4)n3)C2)cc1 (configuration not stated)	57
COc1ccc(C2=NN(c3ccccc3)C(c3noc(-c4ccccc4)n3)C2)cc1 (configuration not stated)	62

System: Bacillus cereus
Assay: Antimicrobial activity against Bacillus cereus MTCC 8372
Assay type: functional
Settings: not given

Structure (SMILES)	MIC [µg/mL]
c1ccc(C2=NN(c3ccccc3)C(c3noc(-c4ccccc4)n3)C2)cc1 (configuration not stated)	30 (≈ 81.9 µM)
COc1ccc(C2=NN(c3ccccc3)C(c3noc(-c4ccccc4)n3)C2)cc1 (configuration not stated)	45 (≈ 114 µM)

System: not listed separately
Assay: Antioxidant activity assessed as reducing power of ferric ion at 10 ug/ml after 20 mins
Assay type: functional
Design: scale not given: the % may be the effect or the level left
Settings: not given

Structure (SMILES)	Activity [%]
c1ccc(C2=NN(c3ccccc3)C(c3noc(-c4ccccc4)n3)C2)cc1 (configuration not stated)	6
COc1ccc(C2=NN(c3ccccc3)C(c3noc(-c4ccccc4)n3)C2)cc1 (configuration not stated)	11

System: not listed separately
Assay: Antiinflammatory activity against heat-induced albumin denaturation at […] preincubated for 15 mins before heat induction by UV-vis spectrophotometer analysis
Assay type: functional
Settings: not given

Structure (SMILES)	inhibition [%]
c1ccc(C2=NN(c3ccccc3)C(c3noc(-c4ccccc4)n3)C2)cc1 (configuration not stated)	23.3
COc1ccc(C2=NN(c3ccccc3)C(c3noc(-c4ccccc4)n3)C2)cc1 (configuration not stated)	23.3

System: Klebsiella pneumoniae
Assay: Antimicrobial activity against Klebsiella pneumoniae MTCC 3384 at 100 ug/ml after 24 hrs by agar disc diffusion method
Assay type: functional
Settings: MTCC 3384, 24 h, read-out: DIZ

Structure (SMILES)	zone of inhibition at 100 µg/mL [mm]
c1ccc(C2=NN(c3ccccc3)C(c3noc(-c4ccccc4)n3)C2)cc1 (configuration not stated)	6
COc1ccc(C2=NN(c3ccccc3)C(c3noc(-c4ccccc4)n3)C2)cc1 (configuration not stated)	8

System: Aspergillus flavus
Assay: Antimicrobial activity against Aspergillus flavus MTCC 873 at 50 ug/ml after 24 hrs by agar disc diffusion method
Assay type: functional
Settings: MTCC 873, 24 h, read-out: DIZ

Structure (SMILES)	zone of inhibition at 50 µg/mL [mm]
c1ccc(C2=NN(c3ccccc3)C(c3noc(-c4ccccc4)n3)C2)cc1 (configuration not stated)	9
COc1ccc(C2=NN(c3ccccc3)C(c3noc(-c4ccccc4)n3)C2)cc1 (configuration not stated)	7

System: Aspergillus niger
Assay: Antimicrobial activity against Aspergillus niger MTCC 281 at 50 ug/ml after 24 hrs by agar disc diffusion method
Assay type: functional
Settings: MTCC 281, 24 h, read-out: DIZ

Structure (SMILES)	zone of inhibition at 50 µg/mL [mm]
c1ccc(C2=NN(c3ccccc3)C(c3noc(-c4ccccc4)n3)C2)cc1 (configuration not stated)	10
COc1ccc(C2=NN(c3ccccc3)C(c3noc(-c4ccccc4)n3)C2)cc1 (configuration not stated)	10

System: Aspergillus flavus
Assay: Antimicrobial activity against Aspergillus flavus MTCC 873 at 100 ug/ml after 24 hrs by agar disc diffusion method
Assay type: functional
Settings: MTCC 873, 24 h, read-out: DIZ

Structure (SMILES)	zone of inhibition at 100 µg/mL [mm]
c1ccc(C2=NN(c3ccccc3)C(c3noc(-c4ccccc4)n3)C2)cc1 (configuration not stated)	12
COc1ccc(C2=NN(c3ccccc3)C(c3noc(-c4ccccc4)n3)C2)cc1 (configuration not stated)	10

System: Klebsiella pneumoniae
Assay: Antimicrobial activity against Klebsiella pneumoniae MTCC 3384
Assay type: functional
Settings: not given

Structure (SMILES)	MIC [µg/mL]
c1ccc(C2=NN(c3ccccc3)C(c3noc(-c4ccccc4)n3)C2)cc1 (configuration not stated)	30 (≈ 81.9 µM)
COc1ccc(C2=NN(c3ccccc3)C(c3noc(-c4ccccc4)n3)C2)cc1 (configuration not stated)	25 (≈ 63.1 µM)

System: Escherichia coli
Assay: Antimicrobial activity against Escherichia coli MTCC 724 at 50 ug/ml after 24 hrs by agar disc diffusion method
Assay type: functional
Settings: MTCC 724, 24 h, read-out: DIZ

Structure (SMILES)	zone of inhibition at 50 µg/mL [mm]
c1ccc(C2=NN(c3ccccc3)C(c3noc(-c4ccccc4)n3)C2)cc1 (configuration not stated)	3
COc1ccc(C2=NN(c3ccccc3)C(c3noc(-c4ccccc4)n3)C2)cc1 (configuration not stated)	6

System: Staphylococcus aureus
Assay: Antimicrobial activity against Staphylococcus aureus MTCC 96 at 100 ug/ml after 24 hrs by agar disc diffusion method
Assay type: functional
Settings: MTCC 96, 24 h, read-out: DIZ

Structure (SMILES)	zone of inhibition at 100 µg/mL [mm]
c1ccc(C2=NN(c3ccccc3)C(c3noc(-c4ccccc4)n3)C2)cc1 (configuration not stated)	8
COc1ccc(C2=NN(c3ccccc3)C(c3noc(-c4ccccc4)n3)C2)cc1 (configuration not stated)	12

System: not listed separately
Assay: Antioxidant activity against ferric chloride-induced lipid peroxidation using egg lecithin at 10 ug/ml after 1 hr
Assay type: functional
Settings: not given

Structure (SMILES)	inhibition [%]
c1ccc(C2=NN(c3ccccc3)C(c3noc(-c4ccccc4)n3)C2)cc1 (configuration not stated)	21
COc1ccc(C2=NN(c3ccccc3)C(c3noc(-c4ccccc4)n3)C2)cc1 (configuration not stated)	26

System: Aspergillus niger
Assay: Antimicrobial activity against Aspergillus niger MTCC 281
Assay type: functional
Settings: not given

Structure (SMILES)	MIC [µg/mL]
c1ccc(C2=NN(c3ccccc3)C(c3noc(-c4ccccc4)n3)C2)cc1 (configuration not stated)	15 (≈ 40.9 µM)
COc1ccc(C2=NN(c3ccccc3)C(c3noc(-c4ccccc4)n3)C2)cc1 (configuration not stated)	10 (≈ 25.2 µM)

System: not listed separately
Assay: Antioxidant activity against ferric chloride-induced lipid peroxidation using egg lecithin at 50 ug/ml after 1 hr
Assay type: functional
Settings: not given

Structure (SMILES)	inhibition [%]
c1ccc(C2=NN(c3ccccc3)C(c3noc(-c4ccccc4)n3)C2)cc1 (configuration not stated)	40
COc1ccc(C2=NN(c3ccccc3)C(c3noc(-c4ccccc4)n3)C2)cc1 (configuration not stated)	40

System: Shigella flexneri
Assay: Antimicrobial activity against Shigella flexneri MTCC 1457
Assay type: functional
Settings: not given

Structure (SMILES)	MIC [µg/mL]
c1ccc(C2=NN(c3ccccc3)C(c3noc(-c4ccccc4)n3)C2)cc1 (configuration not stated)	20 (≈ 54.6 µM)
COc1ccc(C2=NN(c3ccccc3)C(c3noc(-c4ccccc4)n3)C2)cc1 (configuration not stated)	25 (≈ 63.1 µM)

System: Staphylococcus aureus
Assay: Antimicrobial activity against Staphylococcus aureus MTCC 96 at 50 ug/ml after 24 hrs by agar disc diffusion method
Assay type: functional
Settings: MTCC 96, 24 h, read-out: DIZ

Structure (SMILES)	zone of inhibition at 50 µg/mL [mm]
c1ccc(C2=NN(c3ccccc3)C(c3noc(-c4ccccc4)n3)C2)cc1 (configuration not stated)	2
COc1ccc(C2=NN(c3ccccc3)C(c3noc(-c4ccccc4)n3)C2)cc1 (configuration not stated)	2

System: not listed separately
Assay: Antioxidant activity assessed as reducing power of ferric ion at 50 ug/ml after 20 mins
Assay type: functional
Design: scale not given: the % may be the effect or the level left
Settings: not given

Structure (SMILES)	Activity [%]
c1ccc(C2=NN(c3ccccc3)C(c3noc(-c4ccccc4)n3)C2)cc1 (configuration not stated)	16
COc1ccc(C2=NN(c3ccccc3)C(c3noc(-c4ccccc4)n3)C2)cc1 (configuration not stated)	20

System: Escherichia coli
Assay: Antimicrobial activity against Escherichia coli MTCC 724 at 100 ug/ml after 24 hrs by agar disc diffusion method
Assay type: functional
Settings: MTCC 724, 24 h, read-out: DIZ

Structure (SMILES)	zone of inhibition at 100 µg/mL [mm]
c1ccc(C2=NN(c3ccccc3)C(c3noc(-c4ccccc4)n3)C2)cc1 (configuration not stated)	8
COc1ccc(C2=NN(c3ccccc3)C(c3noc(-c4ccccc4)n3)C2)cc1 (configuration not stated)	8

System: Aspergillus flavus
Assay: Antimicrobial activity against Aspergillus flavus MTCC 873
Assay type: functional
Settings: not given

Structure (SMILES)	MIC [µg/mL]
c1ccc(C2=NN(c3ccccc3)C(c3noc(-c4ccccc4)n3)C2)cc1 (configuration not stated)	15 (≈ 40.9 µM)
COc1ccc(C2=NN(c3ccccc3)C(c3noc(-c4ccccc4)n3)C2)cc1 (configuration not stated)	25 (≈ 63.1 µM)

System: Aspergillus niger
Assay: Antimicrobial activity against Aspergillus niger MTCC 281 at 100 ug/ml after 24 hrs by agar disc diffusion method
Assay type: functional
Settings: MTCC 281, 24 h, read-out: DIZ

Structure (SMILES)	zone of inhibition at 100 µg/mL [mm]
c1ccc(C2=NN(c3ccccc3)C(c3noc(-c4ccccc4)n3)C2)cc1 (configuration not stated)	14
COc1ccc(C2=NN(c3ccccc3)C(c3noc(-c4ccccc4)n3)C2)cc1 (configuration not stated)	18

System: not listed separately
Assay: Antioxidant activity assessed as reducing power of ferric ion at 100 ug/ml after 20 mins
Assay type: functional
Design: scale not given: the % may be the effect or the level left
Settings: not given

Structure (SMILES)	Activity [%]
c1ccc(C2=NN(c3ccccc3)C(c3noc(-c4ccccc4)n3)C2)cc1 (configuration not stated)	58
COc1ccc(C2=NN(c3ccccc3)C(c3noc(-c4ccccc4)n3)C2)cc1 (configuration not stated)	64

System: Shigella flexneri
Assay: Antimicrobial activity against Shigella flexneri MTCC 1457 at 50 ug/ml after 24 hrs by agar disc diffusion method
Assay type: functional
Settings: MTCC 1457, 24 h, read-out: DIZ

Structure (SMILES)	zone of inhibition at 50 µg/mL [mm]
c1ccc(C2=NN(c3ccccc3)C(c3noc(-c4ccccc4)n3)C2)cc1 (configuration not stated)	4
COc1ccc(C2=NN(c3ccccc3)C(c3noc(-c4ccccc4)n3)C2)cc1 (configuration not stated)	7

System: Shigella flexneri
Assay: Antimicrobial activity against Shigella flexneri MTCC 1457 at 100 ug/ml after 24 hrs by agar disc diffusion method
Assay type: functional
Settings: MTCC 1457, 24 h, read-out: DIZ

Structure (SMILES)	zone of inhibition at 100 µg/mL [mm]
c1ccc(C2=NN(c3ccccc3)C(c3noc(-c4ccccc4)n3)C2)cc1 (configuration not stated)	8
COc1ccc(C2=NN(c3ccccc3)C(c3noc(-c4ccccc4)n3)C2)cc1 (configuration not stated)	8

System: Radical scavenging activity
Assay: Antioxidant activity assessed as DPPH free radical scavenging activity at 10 ug/ml after 20 mins
Assay type: functional
Settings: not given

Structure (SMILES)	Activity [%]
c1ccc(C2=NN(c3ccccc3)C(c3noc(-c4ccccc4)n3)C2)cc1 (configuration not stated)	18
COc1ccc(C2=NN(c3ccccc3)C(c3noc(-c4ccccc4)n3)C2)cc1 (configuration not stated)	19

System: Bacillus cereus
Assay: Antimicrobial activity against Bacillus cereus MTCC 8372 at 100 ug/ml after 24 hrs by agar disc diffusion method
Assay type: functional
Settings: MTCC 8372, 24 h, read-out: DIZ

Structure (SMILES)	zone of inhibition at 100 µg/mL [mm]
c1ccc(C2=NN(c3ccccc3)C(c3noc(-c4ccccc4)n3)C2)cc1 (configuration not stated)	8
COc1ccc(C2=NN(c3ccccc3)C(c3noc(-c4ccccc4)n3)C2)cc1 (configuration not stated)	12

System: Radical scavenging activity
Assay: Antioxidant activity assessed as DPPH free radical scavenging activity at 100 ug/ml after 20 mins
Assay type: functional
Settings: not given

Structure (SMILES)	Activity [%]
c1ccc(C2=NN(c3ccccc3)C(c3noc(-c4ccccc4)n3)C2)cc1 (configuration not stated)	39
COc1ccc(C2=NN(c3ccccc3)C(c3noc(-c4ccccc4)n3)C2)cc1 (configuration not stated)	51

System: Klebsiella pneumoniae
Assay: Antimicrobial activity against Klebsiella pneumoniae MTCC 3384 at 50 ug/ml after 24 hrs by agar disc diffusion method
Assay type: functional
Settings: MTCC 3384, 24 h, read-out: DIZ

Structure (SMILES)	zone of inhibition at 50 µg/mL [mm]
c1ccc(C2=NN(c3ccccc3)C(c3noc(-c4ccccc4)n3)C2)cc1 (configuration not stated)	4
COc1ccc(C2=NN(c3ccccc3)C(c3noc(-c4ccccc4)n3)C2)cc1 (configuration not stated)	6

System: Escherichia coli
Assay: Antimicrobial activity against Escherichia coli MTCC 724
Assay type: functional
Settings: not given

Structure (SMILES)	MIC [µg/mL]
c1ccc(C2=NN(c3ccccc3)C(c3noc(-c4ccccc4)n3)C2)cc1 (configuration not stated)	50 (≈ 136 µM)
COc1ccc(C2=NN(c3ccccc3)C(c3noc(-c4ccccc4)n3)C2)cc1 (configuration not stated)	25 (≈ 63.1 µM)
